One test has as its system SMMC-7721. Kind of test: Cytotoxicity against human SMMC-7721 cells assessed as cell growth inhibition incubated for 48 hrs by MTT assay. The class given is functional, cell-based. The following applies: SMMC-7721, 48 h.
A further test relates to B16. Nature of the test: Cytotoxicity against mouse B16 cells assessed as cell growth inhibition incubated for 48 hrs by MTT assay. The class given is functional, cell-based. Conditions: B16, 48 h. Background: Tetrazolium dyes change colour on reduction, which living cells bring about.
For test [1], the system named is HeLa. Nature of the test: Cytotoxicity against human HeLa cells assessed as cell growth inhibition incubated for 48 hrs by MTT assay. The class given is functional, cell-based.
In the next test the test system is Col2. Kind of test: Cytotoxicity against human Col2 cells assessed as cell growth inhibition incubated for 24 hrs by MTT assay. The class given is functional, cell-based. Conditions: Col2, 24 h.
For test [2], the system named is A549. Kind of test: Cytotoxicity against human A549 cells assessed as cell growth inhibition incubated for 24 hrs by MTT assay. The class given is functional, cell-based. The following applies: A549, 24 h.
The test system of test [3] is MDA-MB-231. Kind of test: Cytotoxicity against human MDA-MB-231 cells assessed as cell growth inhibition incubated for 24 hrs by MTT assay. It counts as functional, cell-based. Conditions: MDA-MB-231, 24 h.
The test system of another test is KB. Nature of the test: Cytotoxicity against human KB cells assessed as cell growth inhibition incubated for 24 hrs by MTT assay. It counts as functional, cell-based.
The test system of test [4] is K562. Nature of the test: Cytotoxicity against human K562 cells assessed as cell growth inhibition incubated for 24 hrs by MTT assay. The class given is functional, cell-based. Conditions: K562, 24 h.
Test [5] has as its system Jurkat. Kind of test: Inhibition of cell growth in human Jurkat cells at 25 ug/ml. The class given is functional.
Another test relates to NUGC-3. Kind of test: Cytotoxicity against human NUGC-3 cells assessed as cell growth inhibition incubated for 30 mins by MTT assay. The class given is functional, cell-based. Conditions: NUGC-3, 0.5 h.
Test [6] concerns K562. Kind of test: Antiproliferative activity against human K562 cells assessed as reduction in cell viability incubated for 48 hrs by CCK-8 assay. The class given is functional, cell-based. Conditions: K562, 48 h.
Test [7] relates to HeLa. Nature of the test: Cytotoxicity against human HeLa cells assessed as cell growth inhibition by alamar blue assay. It counts as functional, cell-based. (Resazurin is reduced to fluorescent resorufin, in cell work by metabolically active cells.)
The subject of another test is MCF7. Nature of the test: Cytotoxicity against human MCF7 cells assessed as cell growth inhibition by MTT assay. It counts as functional, cell-based.
In test [8] the test system is MDA-MB-231. Nature of the test: Cytotoxicity against human MDA-MB-231 cells assessed as cell growth inhibition by alamar blue assay. The class given is functional, cell-based.
Another test deals with MCF-10A. Nature of the test: Cytotoxicity against human MCF-10A cells assessed as cell growth inhibition by alamar blue assay. It counts as functional, cell-based.
Test [9] concerns Jurkat. Nature of the test: Cytotoxicity against human Jurkat cells assessed as cell growth inhibition by alamar blue assay. The class given is functional, cell-based.
The subject of another test is U-937. Nature of the test: Cytotoxicity against human U-937 cells assessed as cell growth inhibition by alamar blue assay. It counts as functional, cell-based.
Test [10] deals with A549. Kind of test: Cytotoxicity against human A549 cells assessed as cell growth inhibition incubated for 48 hrs by MTT assay. The class given is functional, cell-based. Conditions: A549, 48 h.
The next test has as its system HEp-2. Nature of the test: Cytotoxicity against human HEp-2 cells assessed as cell growth inhibition by measuring effective dose. It counts as functional. The following applies: read-out: ED50 (the source's name).
The subject of a further test is Ca-Ski. Nature of the test: Cytotoxicity against human Ca-Ski cells assessed as inhibition of cell growth incubated for 24 hrs by MTT assay. It counts as functional, cell-based.
For test [11], the system named is HeLa. Kind of test: Cytotoxicity against human HeLa cells assessed as inhibition of cell growth incubated for 24 hrs by MTT assay. The class given is functional, cell-based.

SMILES strings stand for the structures. ≈ marks a conversion by molar mass, not a printed value.

A word on the IC50: it is the concentration needed to halve the response being measured. As for `CC/C=C\C/C=C\C/C=C\CCCCCCCC(=O)OCC(CO[C@H]1O[C@H](CNC(=O)CCc2ccc(O)cc2)[C@@H](O)[C@H](O)[C@H]1O)OC(=O)CCCCCCC/C=C\C/C=C\C/C=C\CC` (stereo partly specified), the IC50 in the test with SMMC-7721, with B16 and in the test on HeLa [1] was 70.3 µg/mL (≈ 76.2 µM) each time.

For the compound `CCCCCCCCO[C@@H]1O[C@@H](C)[C@H](OC(=O)CCCCC)[C@@H](O[C@@H]2O[C@@H](C)[C@H](OC(C)=O)[C@@H](O[C@@H]3O[C@@H](C)[C@H](OC(C)=O)[C@@H](O[C@@H]4O[C@@H](C)[C@H](O)[C@@H](O)[C@H]4O)[C@H]3OC(C)=O)[C@H]2OC(C)=O)[C@H]1O`, the concentration for half-maximal inhibition (IC50) in the test on Col2, with A549 [2], in the test on MDA-MB-231 [3], in the test on KB and in the test on K562 [4] was 700 nM each time.

One may read the inhibition as how much of the control response was suppressed. Read a high inhibition as a strong effect. `CCCCOC(=O)CCCCCCC/C=C/CCCCCC[C@H](C)O[C@@H]1O[C@H](COC(C)=O)[C@@H](O)[C@H](O)[C@H]1O[C@@H]1O[C@H](COC(C)=O)[C@@H](O)[C@H](O)[C@H]1O` had an inhibition at 25 µg/mL in the test on Jurkat [5] of 99.7%.

For the compound `CC/C=C\C/C=C\C/C=C\CCCCCCCC(=O)OCC(CO[C@H]1O[C@H](CN)[C@@H](O)[C@H](O)[C@H]1O)OC(=O)CCCCCCC/C=C\C/C=C\C/C=C\CC` (stereo partly specified), the IC50 in the test on SMMC-7721, in the test with B16 and with HeLa [1] was 70.3 µg/mL (≈ 90.8 µM) each time.

`CCCCCCCCCCCCCCCCCC(=O)OCC(O)CO[C@H]1O[C@H](CO)[C@@H](O)[C@H](O)[C@H]1O` (stereo partly specified): the IC50 with NUGC-3 is 110000 nM.

In the case of `CCCCCCCCCCN1C[C@@H](O)[C@@H](O)C1`, the IC50 in the test with K562 [6] was found to be 17700 nM.

Regarding `C/C=C(\C)C(=O)O[C@@H]1[C@@H](O)[C@@H]2O[C@H]3[C@H](O[C@@H](CCCCC)CCCCCCCCCC(=O)OC[C@@H](O2)[C@H]1OC(=O)/C=C/c1ccccc1)O[C@H](C)[C@H](OC(C)=O)[C@@H]3O`, the IC50 in the test with HeLa [7] was 14.9 nM; with MCF7, 33 nM; in the test with MDA-MB-231 [8] it was 16.1 nM; in the test with MCF-10A, 30.7 nM; in the test on Jurkat [9] it was 9.7 nM; in the test with U-937, 11.1 nM.

Regarding `CCCCCCCCCCCCCCCC(=O)OCC(CO[C@H]1O[C@H](CS(=O)(=O)[O-])[C@@H](O)[C@H](O)[C@H]1O)OC(=O)CCCCCCCCCCCCCCC.[Na+]` (stereo partly specified), the IC50 with A549 [10] came out at 83.5 µg/mL.

Regarding `CCCCCCCCCCCC(=O)O[C@@H]1[C@@H](O)[C@@H](OC(=O)/C=C/c2ccccc2)[C@H](O[C@@H]2[C@@H](O[C@@H]3O[C@@H](C)[C@H](O)[C@@H](O)[C@H]3O)[C@@H](OC(=O)C(C)C)[C@H](O[C@@H]3[C@@H](O)[C@H]4OC(=O)CCCCCCCCC[C@@H](CCCCC)O[C@@H]5O[C@H](C)[C@@H](O)[C@H](O)[C@H]5O[C@@H]4O[C@H]3C)O[C@H]2C)O[C@H]1C`, in the test on HEp-2, the EC50 amounted to 2 µg/mL (≈ 1.46 µM).

For `CC(=O)OC[C@H]1O[C@H]2O[C@@H](C)CCCCCC/C=C/CCCCCC(=O)O[C@@H]3[C@@H](O)[C@H](O[C@@H]2[C@@H](O)[C@@H]1O)O[C@H](COC(C)=O)[C@H]3O`, the figures for the concentration for half-maximal inhibition (IC50) in the test on Ca-Ski and with HeLa [11] were 82.2 µg/mL (≈ 124 µM) and 62.9 µg/mL (≈ 95.3 µM), respectively.

As to `CCCCCCCCCCCCCCCCCC(=O)OCC(CO[C@H]1O[C@H](CS(=O)(=O)[O-])[C@@H](O)[C@H](O)[C@H]1O)OC(=O)CCCCCCCCCCCCCCCCC.[Na+]` (stereo partly specified), the IC50 in the test with A549 [10] was determined as 75.5 µg/mL.

Take `CCCCCCCCCCN1C[C@H](NC(C)=O)[C@@H](O)[C@H](O)C1=O`: the IC50 with K562 [6] was 19800 nM.

Source of the values: ChEMBL document CHEMBL5260828, “Amphiphilic glycoconjugates as potential anti-cancer chemotherapeutics” (Eur J Med Chem, 2018).
